Experimental data reported in patent EP4786461A1, “PYRAZOLE CARBOXYLIC ACID DERIVATIVE AND USE THEREOF IN MEDICINE” (Haisco Pharmaceutical Group Co., Ltd., priority 2023, dated 2025).
pEC50: −log10 of the molar value. Counter-ions that a name gives are not always drawn. Like-named read-outs stand apart in the source and are kept apart here.

Tests used:
[1] = molecular target: T1, soluble guanylate cyclase (sGC) (Homo sapiens, UniProt Q02108+Q02153); assay: In vitro detection experiment for soluble guanylate cyclase (sGC) activity (TR-FRET cGMP); type: biochemical; conditions: enzymatic agonism and/or activation of sGC; 1.5 nM sGC, 5 µM GTP, 100 µM DETA NONOate
T1 construct: purchased ICE S2304F-H07SH2
T1 sequence (Q02153 1-619): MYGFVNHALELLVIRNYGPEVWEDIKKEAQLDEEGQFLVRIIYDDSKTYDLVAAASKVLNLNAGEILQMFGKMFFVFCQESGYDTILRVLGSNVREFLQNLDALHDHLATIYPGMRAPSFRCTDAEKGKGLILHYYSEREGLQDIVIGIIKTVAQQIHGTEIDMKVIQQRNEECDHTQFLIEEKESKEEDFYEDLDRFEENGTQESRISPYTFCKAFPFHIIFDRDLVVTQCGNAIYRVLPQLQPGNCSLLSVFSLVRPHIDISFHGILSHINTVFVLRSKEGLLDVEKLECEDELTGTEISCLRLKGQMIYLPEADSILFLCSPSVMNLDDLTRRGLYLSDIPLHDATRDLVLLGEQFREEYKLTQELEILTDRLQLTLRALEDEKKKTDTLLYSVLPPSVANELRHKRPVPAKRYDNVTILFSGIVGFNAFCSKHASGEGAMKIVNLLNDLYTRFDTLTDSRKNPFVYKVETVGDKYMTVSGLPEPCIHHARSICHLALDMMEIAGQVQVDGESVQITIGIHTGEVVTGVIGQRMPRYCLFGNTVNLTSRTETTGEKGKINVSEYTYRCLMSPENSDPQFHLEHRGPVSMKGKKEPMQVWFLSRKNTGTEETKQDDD
T1 sequence (Q02108 1-690): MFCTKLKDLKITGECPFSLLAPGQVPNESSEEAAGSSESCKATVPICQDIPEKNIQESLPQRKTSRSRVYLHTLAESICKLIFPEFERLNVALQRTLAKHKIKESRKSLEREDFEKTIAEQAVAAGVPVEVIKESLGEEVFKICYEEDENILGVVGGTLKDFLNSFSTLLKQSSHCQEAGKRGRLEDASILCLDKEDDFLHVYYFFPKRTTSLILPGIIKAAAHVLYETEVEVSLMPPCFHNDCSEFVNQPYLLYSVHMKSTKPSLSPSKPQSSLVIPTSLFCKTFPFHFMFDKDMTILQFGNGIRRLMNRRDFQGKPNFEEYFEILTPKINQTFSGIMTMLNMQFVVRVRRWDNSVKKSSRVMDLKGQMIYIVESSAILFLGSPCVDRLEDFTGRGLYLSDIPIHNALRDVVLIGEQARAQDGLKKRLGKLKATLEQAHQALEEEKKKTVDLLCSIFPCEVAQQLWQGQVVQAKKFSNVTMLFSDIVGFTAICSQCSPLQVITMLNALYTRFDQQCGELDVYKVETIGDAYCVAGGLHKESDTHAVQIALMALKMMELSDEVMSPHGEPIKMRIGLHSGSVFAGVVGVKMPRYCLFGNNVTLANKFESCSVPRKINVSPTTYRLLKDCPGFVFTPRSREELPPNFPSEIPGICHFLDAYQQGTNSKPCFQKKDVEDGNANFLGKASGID
Experimental: First, 100 nL of the compounds at different concentrations were transferred to a 384-well reaction plate (Greiner, Cat. No. 784075) using Echo 655 (LABCYTE, Cat # 655), with the final DMSO concentration of 1% in the reaction mixture; 2 µL of sGC (ICE, Cat. No. S2304F-H07SH2) was added to the 384-well reaction plate, and the mixture was centrifuged at 1000 rpm for 1 min; and then 1 µL of DETA NONOate was added, and the mixture was incubated at 37°C for 10 min. After the incubation was completed, 2 µL of GTP was added, and the mixture was centrifuged at 1000 rpm for 1 min and reacted at 37°C for 60 min. In the reaction system, the final concentrations of sGC, GTP, and DETA NONOate were 1.5 nM, 5 µM, and 100 µM, respectively. After the reaction was completed, 5 µL of the test mixture (PerkinElmer, Cat. No. 62GM2PEG) was added, and the mixture was incubated at room temperature for 60 min. The TR-FRET signal (Ratio: 665/620 nm) was read using a microplate reader (BMG, Cat. No. PHERAstar FSX). A nonlinear regression curve was fitted using GraphPad Prism software, and EC50 values were calculated. Compound A (Example 1 in WO 2010065275) was used as a positive reference compound. The activation rate was calculated according to Equation 2-1, where Low control represents the TR-FRET signal value of 1 µM compound A, and High control represents the TR-FRET signal value in the DMSO well. Stimulation% = (aveHighcontrol−cpdwell)/(ave High control−ave Low; control)*100% [formula] Table 2-1 Results of enzymatic agonism and/or activation of test compounds on soluble guanylate cyclase (sGC).

[2] = Mouse pharmacokinetic assay; type: in vivo, ICR mice; conditions: mice, i.g., 10 mg/kg, plasma
Experimental: Experimental objective: In this experiment, a single dose of test compounds was administered to ICR mice intravenously and intragastrically, the concentrations of the test compounds in the plasma of mice were measured, and the pharmacokinetic characteristics and bioavailability of the test compounds in mice were evaluated.
Experimental animals: male ICR mice, 20-35 g, purchased from Chengdu Dossy Experimental Animals Co., Ltd.
Experimental method: On the day of the experiment, the ICR mice were randomly grouped according to their body weight. The animals were fasted but with water available overnight before the administration, and fed 4 h after the administration.
Sampling: Blood was taken from the orbits at specified time points, and placed in an EDTAK2 centrifuge tube. The tube was centrifuged at 5000 rpm for 10 min, and the plasma was collected.
Time points for plasma collection in G1 group: 0, 5 min, 15 min, 30 min, 1 h, 2 h, 4 h, 7 h, and 24 h.
Time points for plasma collection in G2 group: 0, 5 min, 15 min, 30 min, 1 h, 2 h, 4 h, 7 h, and 24 h.
Before analysis and detection, all the samples were stored at -60°C or lower. The samples were analyzed quantitatively by LC-MS/MS. Table 3-1 PK data of test compound (i.e., drug) in mice

[3] = Rat pharmacokinetic assay; type: in vivo, SD rats; conditions: rats, i.g., 10 mg/kg, plasma
Experimental: Experimental animals: male SD rats, 180-200 g, purchased from Chengdu Dossy Experimental Animals Co., Ltd.
Experimental design: On the day of the experiment, the SD rats were randomly grouped according to their body weight. The animals were fasted but with water available overnight before the administration, and fed 4 h after the administration.
Blood was taken from the orbits at specified time points, and placed in an EDTAK2 centrifuge tube. The tube was centrifuged at 5000 rpm for 10 min, and the plasma was collected.
Blood sampling time points for the intravenous administration group: 0, 5 min, 15 min, 30 min, 1 h, 2 h, 4 h, 7 h and 24 h; blood sampling time points for the intragastric administration group: 0, 5 min, 15 min, 30 min, 1 h, 2 h, 4 h, 7 h and 24 h. Before analysis and detection, all the samples were stored at -60°C or lower. The samples were analyzed quantitatively by LC-MS/MS. Table 4-1 PK data of test compound (i.e., drug) in rats

[4] = Stability test in rat liver microsomes; type: in vitro ADME
Experimental: At 37°C, 1 µM of the test compound was incubated with rat liver microsomes (0.5 mg/mL) supplemented with an NADPH regeneration system for 5, 10, 20, 30 and 60 minutes, and then the LC-MS/MS method was used to detect the concentration of the test compound in the resulting sample. The half-life (T1/2) and intrinsic clearance (CLint(mic)) of the compound in rat liver microsome solution were obtained by calculating the remaining percentage of the compound at the corresponding time points.

[5] = rat liver microsomes 0.5 mg/mL, 1 µM compound, NADPH regeneration system, 37°C
[6] = rat, microsomes, rat liver microsomes 0.5 mg/mL, 1 µM compound, NADPH regeneration system, 37°C
[7] = rat, microsomes, rat liver microsomes 0.5 mg/mL, 1 µM compound, NADPH regeneration system, 37°C, read-out: CLint(mic)
[8] = rat liver microsomes 0.5 mg/mL, 1 µM compound, NADPH regeneration system, 37°C, 1 µM

SMILES	pEC50 [1]	AUC ([3]; rat, po, read-out: AUC)	AUC ([2]; mouse, po, read-out: AUC)	also measured
CC(C)CN1CCN(c2ccc(-c3c(F)cc(Cl)cc3N3CCCC(n4ncc(C(=O)O)c4C(F)F)C3)cc2)CC1 (racemic) [Compound 1]	> 7.70	–	–	–
CC(C)CN1CCN(c2ccc(-c3c(F)cc(Cl)cc3N3CCCC(n4ncc(C(=O)O)c4C(F)F)C3)cc2)CC1 (single isomer, unassigned) [Compound 1-1]	–	–	–	AUC ([2]; mouse, in vivo, po, read-out: AUC): > 10000 ng·h/mL; AUC ([3]; rat, in vivo, po, read-out: AUC): > 10000 ng·h/mL; half-life at 1 µM [4, 5]: 0.727 h; microsomal CLint at 1 µM ([4]; rat, microsomes): 31.8 µL/min/mg
CC(C)CN1CCN2c3ccc(-c4ccc(Cl)cc4N4CCC[C@@H](n5ncc(C(=O)O)c5C(F)F)C4)cc3CCC2C1 (single isomer, unassigned) [Compound 8-1]	> 7.70	> 10000 ng·h/mL	–	AUC [2]: > 10000 ng·h/mL; half-life at 1 µM [4, 6]: 2.53 h; microsomal CLint at 1 µM [4, 7]: 9.13 µL/min/mg
CC(C)CN1CCN2c3ccc(-c4ccc(Cl)cc4N4CCC[C@H](n5ncc(C(=O)O)c5C(F)F)C4)cc3CCC2C1 (single isomer, unassigned) [Compound 8-2]	> 7.70	> 10000 ng·h/mL	> 10000 ng·h/mL	half-life at 1 µM [4, 6]: 1.63 h; microsomal CLint at 1 µM [4, 7]: 14.1 µL/min/mg
CC(C)CN1CCN2c3ccc(-c4ccc(Cl)cc4N4CCC[C@@H](n5ncc(C(=O)O)c5C(F)F)C4)cc3CCC2C1 (single isomer, unassigned) [Compound 9-1]	> 7.70	–	> 10000 ng·h/mL	AUC [3]: > 10000 ng·h/mL; CLint(mic) [4, 8]: 11.0 µL/min/mg; T1/2 [4, 8]: 2.1 h
CC(C)CN1CCN(c2ccc(-c3ccc(C(F)F)cc3N3CCC[C@@H](n4ncc(C(=O)O)c4C(F)F)C3)cc2)CC1 [Compound 3-1]	> 7.70	> 10000 ng·h/mL	> 10000 ng·h/mL	–
CC(C)CN1CCN(c2ccc(-c3ccc(C(F)F)cc3N3CCC[C@H](n4ncc(C(=O)O)c4C(F)F)C3)cc2)CC1 [Compound 3-2]	> 7.70	–	–	–
CC(C)CN1CCN2c3cc(F)c(-c4ccc(Cl)cc4N4CCC[C@@H](n5ncc(C(=O)O)c5C(F)F)C4)cc3CC[C@H]2C1 [Compound 5-1]	> 7.70	> 10000 ng·h/mL	> 10000 ng·h/mL	half-life at 1 µM [4, 6]: 2.33 h; microsomal CLint at 1 µM [4, 7]: 9.87 µL/min/mg
CC(C)CN1CCN2c3cc(F)c(-c4ccc(Cl)cc4N4CCC[C@H](n5ncc(C(=O)O)c5C(F)F)C4)cc3CC[C@H]2C1 [Compound 5-2]	> 7.70	–	> 10000 ng·h/mL	–
CC(C)CN1CCN2c3cc(F)c(-c4ccc(Cl)cc4N4CCC[C@@H](n5ncc(C(=O)O)c5C(F)F)C4)cc3CC[C@@H]2C1 [Compound 6-1]	> 7.70	> 10000 ng·h/mL	> 10000 ng·h/mL	half-life at 1 µM [4, 6]: 1.87 h; microsomal CLint at 1 µM [4, 7]: 12.4 µL/min/mg
CC(C)CN1CCN2c3cc(F)c(-c4ccc(Cl)cc4N4CCC[C@H](n5ncc(C(=O)O)c5C(F)F)C4)cc3CC[C@@H]2C1 [Compound 6-2]	> 7.70	> 10000 ng·h/mL	> 10000 ng·h/mL	half-life at 1 µM [4, 6]: 1.95 h; microsomal CLint at 1 µM [4, 7]: 11.8 µL/min/mg
CC(C)CN1CCN2c3ccc(-c4ccc(Cl)cc4N4CCCC(n5ncc(C(=O)O)c5C(F)F)C4)cc3CCC2C1 (stereo not drawn) [Compound 8]	> 7.70	–	–	–
CC(C)CN1CC2CCC(C1)N2c1ccc(-c2ccc(Cl)cc2N2CCCC(n3ncc(C(=O)O)c3C(F)F)C2)cc1 (stereo not drawn) [Compound 10]	> 7.70	–	–	–
CC(C)CN1CCN(c2ccc(-c3ccc(Cl)cc3N3CCC[C@@H](n4ncc(C(=O)O)c4C(F)F)C3)cc2)CC1 [Control compound 1, reference compound]	–	–	–	half-life at 1 µM [4, 5]: 0.183 h; microsomal CLint at 1 µM ([4]; rat liver microsomes 0.5 mg/mL, 1 µM compound, NADPH regeneration system, 37°C, read-out: CLint(mic)): 126 µL/min/mg
CC(C)CN1CCN2c3cc(F)c(-c4ccc(Cl)cc4N4CCCC(n5ncc(C(=O)O)c5C(F)F)C4)cc3CC[C@H]2C1 (stereo partly drawn) [Trifluoroacetate salt of Compound 5]	> 7.70	–	–	–
CC(C)CN1CC=C(c2ccc(-c3ccc(Cl)cc3N3CCCC(n4ncc(C(=O)O)c4C(F)F)C3)cc2)CC1 (stereo not drawn) [Trifluoroacetate salt of Compound 11]	> 7.70	–	–	–
CC(C)CN1CCC(c2ccc(-c3ccc(Cl)cc3N3CCCC(n4ncc(C(=O)O)c4C(F)F)C3)cc2)CC1 (stereo not drawn) [Trifluoroacetate salt of Compound 12]	> 7.70	–	–	–
